Data from PubChem BioAssay (NCI).
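Assay format: 96-well plates, 48-hour exposure. GI50: concentration for 50% inhibition of growth. At the TGI there is no net growth.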

What was measured:
Test in all cases: inhibition of tumour cell growth, NCI panel, 48 h
SK-MEL-5 melanoma = tested on: SK-MEL-5 melanoma
HOP-62 NSCLC = tested on: HOP-62 NSCLC
MOLT-4 leukemia = tested on: MOLT-4 leukemia
DU-145 prostate = tested on: DU-145 prostate
NCI-H23 lung = tested on: NCI-H23 lung
NCI-H522 lung = tested on: NCI-H522 lung
T-47D breast = tested on: T-47D breast
HCT-15 colon = tested on: HCT-15 colon
KM12 colon = tested on: KM12 colon
CCRF-CEM leukemia = tested on: CCRF-CEM leukemia
HS 578T breast = tested on: HS 578T breast
BT-549 breast = tested on: BT-549 breast
ACHN renal = tested on: ACHN renal
UACC-62 melanoma = tested on: UACC-62 melanoma
PC-3 prostate = tested on: PC-3 prostate
SF-295 CNS = tested on: SF-295 CNS
NCI/ADR-RES ovarian = tested on: NCI/ADR-RES ovarian
HOP-92 NSCLC = tested on: HOP-92 NSCLC
HCT-116 colon = tested on: HCT-116 colon
HCC-2998 colon = tested on: HCC-2998 colon
OVCAR-5 ovarian = tested on: OVCAR-5 ovarian
OVCAR-4 ovarian = tested on: OVCAR-4 ovarian
MCF7 breast = tested on: MCF7 breast
RPMI-8226 leukemia = tested on: RPMI-8226 leukemia
HL-60(TB) leukemia = tested on: HL-60(TB) leukemia
K-562 leukemia = tested on: K-562 leukemia
SK-OV-3 ovarian = tested on: SK-OV-3 ovarian
HT29 colon = tested on: HT29 colon
SK-MEL-2 melanoma = tested on: SK-MEL-2 melanoma
A498 renal = tested on: A498 renal
SNB-75 CNS = tested on: SNB-75 CNS
UACC-257 melanoma = tested on: UACC-257 melanoma
MDA-MB-231 breast = tested on: MDA-MB-231 breast
OVCAR-8 ovarian = tested on: OVCAR-8 ovarian
NCI-H460 lung = tested on: NCI-H460 lung
SNB-19 CNS = tested on: SNB-19 CNS
MALME-3M melanoma = tested on: MALME-3M melanoma
COLO 205 colon = tested on: COLO 205 colon
NCI-H226 lung = tested on: NCI-H226 lung
UO-31 renal = tested on: UO-31 renal
MDA-MB-468 breast = tested on: MDA-MB-468 breast
OVCAR-3 ovarian = tested on: OVCAR-3 ovarian
U251 CNS = tested on: U251 CNS
SF-268 CNS = tested on: SF-268 CNS
IGROV1 ovarian = tested on: IGROV1 ovarian
LOX IMVI melanoma = tested on: LOX IMVI melanoma
CAKI-1 renal = tested on: CAKI-1 renal
SW-620 colon = tested on: SW-620 colon
EKVX NSCLC = tested on: EKVX NSCLC
SF-539 CNS = tested on: SF-539 CNS
MDA-MB-435 = tested on: MDA-MB-435
TK-10 renal = tested on: TK-10 renal
786-0 renal = tested on: 786-0 renal
SK-MEL-28 melanoma = tested on: SK-MEL-28 melanoma
M14 melanoma = tested on: M14 melanoma
SN12C renal = tested on: SN12C renal
SR leukemia = tested on: SR leukemia
A549 NSCLC = tested on: A549 NSCLC

CCc1ccccc1-c1nc(CN[C@@H]2C[C@@H]3C[C@H]([C@H]2C)C3(C)C)c(C)o1
GI50 (SK-MEL-5 melanoma): 1770 nM
TGI (SK-MEL-5 melanoma): 3150 nM
GI50 (HOP-62 NSCLC): 1650 nM
TGI (HOP-62 NSCLC): 3280 nM
GI50 (MOLT-4 leukemia): 2230 nM
TGI (MOLT-4 leukemia): 5720 nM
GI50 (DU-145 prostate): 2030 nM
TGI (DU-145 prostate): 4260 nM
GI50 (NCI-H23 lung): 1960 nM
TGI (NCI-H23 lung): 4380 nM
GI50 (NCI-H522 lung): 1610 nM
TGI (NCI-H522 lung): 3220 nM
GI50 (T-47D breast): 1730 nM
TGI (T-47D breast): 3810 nM
GI50 (HCT-15 colon): 1720 nM
TGI (HCT-15 colon): 3150 nM
GI50 (KM12 colon): 1850 nM
TGI (KM12 colon): 3570 nM
GI50 (CCRF-CEM leukemia): 3250 nM
TGI (CCRF-CEM leukemia): 10600 nM
GI50 (HS 578T breast): 1830 nM
TGI (HS 578T breast): 4160 nM
GI50 (BT-549 breast): 1710 nM
TGI (BT-549 breast): 3170 nM
GI50 (ACHN renal): 1770 nM
TGI (ACHN renal): 3180 nM
GI50 (UACC-62 melanoma): 1690 nM
TGI (UACC-62 melanoma): 3190 nM
GI50 (PC-3 prostate): 1800 nM
TGI (PC-3 prostate): 4380 nM
GI50 (SF-295 CNS): 1720 nM
TGI (SF-295 CNS): 3170 nM
GI50 (NCI/ADR-RES ovarian): 1760 nM
TGI (NCI/ADR-RES ovarian): 3610 nM
GI50 (HOP-92 NSCLC): 1370 nM
TGI (HOP-92 NSCLC): 2850 nM
GI50 (HCT-116 colon): 1740 nM
TGI (HCT-116 colon): 3300 nM
GI50 (HCC-2998 colon): 1650 nM
TGI (HCC-2998 colon): 3070 nM
GI50 (OVCAR-5 ovarian): 1590 nM
TGI (OVCAR-5 ovarian): 3040 nM
GI50 (OVCAR-4 ovarian): 2530 nM
TGI (OVCAR-4 ovarian): 8360 nM
GI50 (MCF7 breast): 1650 nM
TGI (MCF7 breast): 3180 nM
GI50 (RPMI-8226 leukemia): 2190 nM
TGI (RPMI-8226 leukemia): 5270 nM
GI50 (HL-60(TB) leukemia): 2430 nM
TGI (HL-60(TB) leukemia): 6730 nM
GI50 (K-562 leukemia): 2340 nM
TGI (K-562 leukemia): 6540 nM
GI50 (SK-OV-3 ovarian): 14200 nM
TGI (SK-OV-3 ovarian): 28900 nM
GI50 (HT29 colon): 1730 nM
TGI (HT29 colon): 3400 nM
GI50 (SK-MEL-2 melanoma): 2550 nM
TGI (SK-MEL-2 melanoma): 7340 nM
GI50 (A498 renal): 1540 nM
TGI (A498 renal): 2950 nM
GI50 (SNB-75 CNS): 12000 nM
TGI (SNB-75 CNS): 24400 nM
GI50 (UACC-257 melanoma): 1660 nM
TGI (UACC-257 melanoma): 3230 nM
GI50 (MDA-MB-231 breast): 1700 nM
TGI (MDA-MB-231 breast): 3120 nM
GI50 (OVCAR-8 ovarian): 1700 nM
TGI (OVCAR-8 ovarian): 3240 nM
GI50 (NCI-H460 lung): 1720 nM
TGI (NCI-H460 lung): 3160 nM
GI50 (SNB-19 CNS): 1770 nM
TGI (SNB-19 CNS): 3400 nM
GI50 (MALME-3M melanoma): 1490 nM
TGI (MALME-3M melanoma): 2840 nM
GI50 (COLO 205 colon): 1850 nM
TGI (COLO 205 colon): 3950 nM
GI50 (NCI-H226 lung): 2110 nM
TGI (NCI-H226 lung): 5000 nM
GI50 (UO-31 renal): 2130 nM
TGI (UO-31 renal): 8450 nM
GI50 (MDA-MB-468 breast): 1500 nM
TGI (MDA-MB-468 breast): 2870 nM
GI50 (OVCAR-3 ovarian): 1610 nM
TGI (OVCAR-3 ovarian): 2960 nM
GI50 (U251 CNS): 1600 nM
TGI (U251 CNS): 3060 nM
GI50 (SF-268 CNS): 2580 nM
TGI (SF-268 CNS): 11000 nM
GI50 (IGROV1 ovarian): 1700 nM
TGI (IGROV1 ovarian): 3260 nM
GI50 (LOX IMVI melanoma): 1660 nM
TGI (LOX IMVI melanoma): 3020 nM
GI50 (CAKI-1 renal): 1830 nM
TGI (CAKI-1 renal): 3810 nM
GI50 (SW-620 colon): 1690 nM
TGI (SW-620 colon): 3200 nM
GI50 (EKVX NSCLC): 2580 nM
TGI (EKVX NSCLC): 7010 nM
GI50 (SF-539 CNS): 1800 nM
TGI (SF-539 CNS): 3180 nM
GI50 (MDA-MB-435): 1670 nM
TGI (MDA-MB-435): 3110 nM
GI50 (TK-10 renal): 2010 nM
TGI (TK-10 renal): 5080 nM
GI50 (786-0 renal): 1710 nM
TGI (786-0 renal): 3500 nM
GI50 (SK-MEL-28 melanoma): 1720 nM
TGI (SK-MEL-28 melanoma): 3110 nM
GI50 (M14 melanoma): 1620 nM
TGI (M14 melanoma): 3120 nM
GI50 (SN12C renal): 1680 nM
TGI (SN12C renal): 3130 nM
GI50 (SR leukemia): 2110 nM
TGI (SR leukemia): 5330 nM
GI50 (A549 NSCLC): 1880 nM
TGI (A549 NSCLC): 4030 nM
